US20240228448A1 (Washington University, priority 2021, published 2024)
Where two headings read alike, the source gives them in different places.

Tests used:
[1] = biological target: S1P5 (Homo sapiens, UniProt Q9H228); assay: competitive S1Ps cell membrane binding assay against [32P]S1P, S1P5
Description: (§2) One way to measure affinity is use of a general competition binding assay.

[2] = biological target: S1P1 (Homo sapiens, UniProt P21453); assay: competitive S1Ps cell membrane binding assay against [32P]S1P, S1P1; details: for IC50 for S1P1 (nM): Table 6, single determinations
Description: as §2

[3] = biological target: S1P3 (Homo sapiens, UniProt Q99500); assay: competitive S1Ps cell membrane binding assay against [32P]S1P, S1P3; details: Table 6
Chain of S1P3 (Q99500 whole entry, species assumed): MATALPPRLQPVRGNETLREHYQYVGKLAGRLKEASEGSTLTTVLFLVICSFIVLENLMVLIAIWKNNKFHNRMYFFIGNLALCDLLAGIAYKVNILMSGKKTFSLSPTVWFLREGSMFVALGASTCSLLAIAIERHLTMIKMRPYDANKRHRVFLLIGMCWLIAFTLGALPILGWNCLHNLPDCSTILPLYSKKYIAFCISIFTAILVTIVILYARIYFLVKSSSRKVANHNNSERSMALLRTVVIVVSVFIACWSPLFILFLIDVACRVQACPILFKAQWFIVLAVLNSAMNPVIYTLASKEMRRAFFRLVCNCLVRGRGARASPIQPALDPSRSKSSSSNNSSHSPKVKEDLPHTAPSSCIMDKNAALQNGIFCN

[4] = system: S1P2-5; assay: competitive S1Ps cell membrane binding assay against [32P]S1P, S1P2-5 reported together; details: for selectivity over S1P2-5: in words
Description: as §2

[5] = biological target: S1P2 (Homo sapiens, UniProt O95136); assay: competitive S1Ps cell membrane binding assay against [32P]S1P, S1P2; details: Table 6
Chain of S1P2 (O95136 whole entry, species assumed): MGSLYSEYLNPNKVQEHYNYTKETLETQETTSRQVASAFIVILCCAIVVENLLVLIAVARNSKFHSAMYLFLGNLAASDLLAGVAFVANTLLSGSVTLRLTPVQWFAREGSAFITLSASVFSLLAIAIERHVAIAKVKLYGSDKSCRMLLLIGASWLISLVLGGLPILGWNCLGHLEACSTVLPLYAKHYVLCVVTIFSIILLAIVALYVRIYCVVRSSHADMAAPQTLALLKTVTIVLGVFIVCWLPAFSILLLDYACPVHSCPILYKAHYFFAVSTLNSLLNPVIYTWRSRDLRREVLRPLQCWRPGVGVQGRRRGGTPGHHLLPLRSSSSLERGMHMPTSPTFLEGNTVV

[6] = biological target: T1, S1P4 (Homo sapiens, UniProt O95977); assay: competitive S1Ps cell membrane binding assay against [32P]S1P, S1P4; details: Table 6; read-out: IC50 for S1P4
T1 sequence (O95977 1-384): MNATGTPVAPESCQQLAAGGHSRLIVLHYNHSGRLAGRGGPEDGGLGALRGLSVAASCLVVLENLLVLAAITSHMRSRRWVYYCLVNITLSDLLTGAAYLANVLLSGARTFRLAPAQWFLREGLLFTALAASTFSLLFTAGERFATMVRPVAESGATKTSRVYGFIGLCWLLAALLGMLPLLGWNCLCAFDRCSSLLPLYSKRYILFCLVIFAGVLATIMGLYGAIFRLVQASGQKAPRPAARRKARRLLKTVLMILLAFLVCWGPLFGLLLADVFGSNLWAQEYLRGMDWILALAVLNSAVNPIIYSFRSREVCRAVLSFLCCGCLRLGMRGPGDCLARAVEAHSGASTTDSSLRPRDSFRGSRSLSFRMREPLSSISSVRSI

[7] = biological target: T2, S1P1 (Mus musculus, UniProt O08530); assay: PET with [18F]TZ4877 in S. aureus infected mice; assay type: in vivo; details: microPET, in words
T2 construct: from tissue; host or cells: living mice (whole body, brain, tissues)
T2 sequence (O08530 whole entry): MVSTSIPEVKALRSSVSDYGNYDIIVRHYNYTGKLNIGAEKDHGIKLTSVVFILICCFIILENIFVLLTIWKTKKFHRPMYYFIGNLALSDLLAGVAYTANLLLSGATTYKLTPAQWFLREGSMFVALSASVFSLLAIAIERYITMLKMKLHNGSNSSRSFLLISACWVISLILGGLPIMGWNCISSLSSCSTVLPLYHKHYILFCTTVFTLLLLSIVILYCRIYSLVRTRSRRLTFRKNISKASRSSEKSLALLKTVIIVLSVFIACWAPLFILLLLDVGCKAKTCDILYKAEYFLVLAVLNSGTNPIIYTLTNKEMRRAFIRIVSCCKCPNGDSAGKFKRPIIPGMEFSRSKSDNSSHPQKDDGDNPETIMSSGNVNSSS
Procedure: Mice were euthanized at 30 min, and S. aureus was injected 24 hours prior to radiotracer injection. […] IHC staining was used for confirmation in infected versus sham controls (FIG. 12E). Increasing signals of the inflammation related cytokines and chemokines were detected in liver.

[8] = HPLC radiometabolite analysis of nonhuman primate plasma, [18F]TZ82112; assay type: in vivo; details: NHP plasma compared with rat plasma, in words
Description: (§1) Considering the high NHP brain uptake and clinically favorable pharmacokinetics compared to other F-18 S1PR1 radiotracers such as [^18F]FCS1P1 and [^18F]4877, we believe [^18F]TZ82112 is worth to transfer into clinical evaluation to confirm [18F]TZ82112 is the best S1PR1 radiotracer for clinical assessment of the neuroinflammation status by measurement of the S1PR1 receptor expression level. On the other side, as a S1PR1 radiotracer, [^18F]TZ82112 has its limitation for preclinical investigation because it quickly metabolites to form a lipophilic radiometabolite which will increase noise signal for PET measurement of S1PR1 expression in inflamed tissues.

[9] = system: S1PR1; assay: NHP PET brain imaging blocking studies; assay type: in vivo, nonhuman primate; details: NHP PET self-blocking, in words
[10] = Ex-vivo rat biodistribution and EAE rat PET studies of [18F]TZ82112; details: in words
[11] = HPLC radiometabolite analysis of rat plasma and rat brain, [18F]TZ82112; assay type: in vivo; details: in words
Description: as §1

[12] = Table 5, read-out: IC50 (nM) S1P5
[13] = read-out: IC50 (nM) S1P1, Table 7
[14] = Table 7, read-out: IC50 (nM) S1P2-5

Chain of S1P1 (Homo sapiens, UniProt P21453) (P21453 whole entry, species assumed): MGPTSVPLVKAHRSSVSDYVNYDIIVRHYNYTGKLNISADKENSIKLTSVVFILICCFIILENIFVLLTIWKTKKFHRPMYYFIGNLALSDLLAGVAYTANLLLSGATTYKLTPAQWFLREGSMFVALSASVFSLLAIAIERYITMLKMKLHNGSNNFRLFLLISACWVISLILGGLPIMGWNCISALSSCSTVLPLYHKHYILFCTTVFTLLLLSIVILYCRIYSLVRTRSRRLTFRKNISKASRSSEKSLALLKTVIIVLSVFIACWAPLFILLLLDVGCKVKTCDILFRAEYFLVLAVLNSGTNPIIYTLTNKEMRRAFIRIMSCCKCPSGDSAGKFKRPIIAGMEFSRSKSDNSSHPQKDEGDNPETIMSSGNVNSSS
Chain of S1P5 (Q9H228 whole entry, species assumed): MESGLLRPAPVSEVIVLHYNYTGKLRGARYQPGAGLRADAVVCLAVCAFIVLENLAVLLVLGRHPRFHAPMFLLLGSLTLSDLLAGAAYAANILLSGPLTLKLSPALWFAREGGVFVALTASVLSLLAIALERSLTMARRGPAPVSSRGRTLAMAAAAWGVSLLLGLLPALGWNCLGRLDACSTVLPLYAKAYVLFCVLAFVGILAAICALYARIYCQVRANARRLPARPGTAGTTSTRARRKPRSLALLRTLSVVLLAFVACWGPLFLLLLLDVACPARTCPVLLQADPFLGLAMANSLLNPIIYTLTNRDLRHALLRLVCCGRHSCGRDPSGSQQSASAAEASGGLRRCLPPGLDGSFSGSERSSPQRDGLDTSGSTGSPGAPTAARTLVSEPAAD

Row | IC50 [1, 12] [nM] | IC50 for S1P5 (nM) ([1]; Table 6) | IC50 ([2]; IC50 for S1P1, running text) [nM] | IC50 for S1P1 (nM) [2] | IC50 [2, 13] [nM] | IC50 for S1P3 (nM) [3] | IC50 [4, 14] [nM] | IC50 [5] [nM] | IC50 [6] [nM] | IC50 ([1]; Table 6, read-out: IC50 for S1P5) [nM] | IC50 [3] [nM] | brain uptake, infected versus sham mice [7] | IC50 ([4]; read-out: IC50 for S1P2-5) [nM] | percentage of the same radiometabolite in plasma [8] | radiometabolite in brain tissue ([11]; rat brain tissue samples) | Structure (SMILES) | selectivity over S1P2-5 [4] | brain uptake after pretreatment with cold TZ82112 [9] | spinal cord uptake compared to the normal controls ([10]; EAE rat model of MS, PET) | brain uptake and washout ([10]; ex-vivo rat biodistribution) | radiometabolite in plasma ([11]; rat plasma)
1 | 77.3 | Not fit | < 20 | Not detected | 7.6 ± 0.2 | Not fit | > 1000 | > 1000 | > 1000 |  |  |  |  |  |  | Cc1ccccc1-c1ccc(-c2nc(-c3ccc(CN(C)CC(=O)O)c(F)c3)no2)cc1C(F)(F)F [TZ82-47] | good selectivity |  |  |  | 
2 | 23.1 |  | < 20 | Not detected | 0.8 ± 0.2 |  | > 1000 | > 1000 | > 1000 | 194 | 189 |  |  |  |  | Cc1ccccc1-c1ccc(-c2nc(-c3ccc(CN(C)CCCC(=O)O)c(F)c3)no2)cc1C(F)(F)F [TZ82-48] | good selectivity |  |  |  | 
3 |  |  |  |  |  |  |  |  |  |  |  | higher uptake in infected mice | > 1000 |  |  | OCCOCc1ccc(-c2noc(-c3ccc(OCC[18F])c(C(F)(F)F)c3)n2)cc1 [[^18F]TZ4877] |  |  |  |  | 
4 |  |  |  |  |  |  |  |  |  |  |  |  |  | much lower | no radioactive metabolite | CN(CCCO)Cc1ccc(-c2noc(-c3ccc(OCC[18F])c(C(F)(F)F)c3)n2)cc1F [[^18F]TZ82112] |  | reduce the its brain uptake | increased spinal cord uptake | high initial brain uptake and good brain washout kinetics | quickly generated a high percentage of a radiometabolite
